Values of other authors, collected in article PMC3985708 (Biochemistry, 2014).

Legend:
modified hASL^Lys3UUU = settings: read-out: Kd, modified hASL^Lys3UUU; Kd value from previous studies
unmodified hASL^Lys3 = settings: read-out: Kd of NCp7 for unmodified ASL

**Q.** Which Kd (modified hASL^Lys3UUU) does the source give for RVTHHAFLGAHRTVG [P6] here?
**A.** Its Kd is 500 ± 100 nM.

**Q.** For “NCp7: HIV-1 nucleocapsid protein 7 (MQRGNFRNQRKIVKCFNCGKEGHTARNCRAPRKKGCWKCGKEGHQMKDCTERQAN; Nucleocapsid protein p7; UniProt P04591 378-432, looked up)”, which “Increase of NCp7 affinity for hASL^Lys3 by the modifications” value (modified hASL^Lys3; modified versus unmodified ASL) is on record?
**A.** The value was ~10 fold.

**Q.** And the Kd (modified hASL^Lys3; read-out: Kd of NCp7 for modified ASL, modified hASL^Lys3)?
**A.** The Kd was 280 ± 30 nM.

**Q.** What about the Kd (unmodified hASL^Lys3) of the same substance?
**A.** The Kd was 2300 ± 620 nM.
